According to publication PMC8677862, “Substrate binding modes of purine and pyrimidine nucleotides to human ecto-5′-nucleotidase (CD73) and inhibition by their bisphosphonic acid derivatives” (Purinergic Signalling, 2021):
Values joined by “and” are separate entries in the source; they are usually repeats but may differ in a detail not shown here. Identical values can stand only once. Counter-ions that a name gives are not always drawn. Like-named read-outs stand apart in the source and are kept apart here.

Columns and labels:
[1] = target: T1, CD73 (Homo sapiens, UniProt P21589, K145S/K147S/K478S/N311D/N333D/N403D/N53D/T376A); experiment: Crystallographic fragment screening by crystal soaking, open form of CD73; format: binding
T1 construct: His6 (C); made in house
T1 sequence (P21589 27-549 N53D/K145S/K147S/N311D/N333D/T376A/N403D/K478S limits assumed): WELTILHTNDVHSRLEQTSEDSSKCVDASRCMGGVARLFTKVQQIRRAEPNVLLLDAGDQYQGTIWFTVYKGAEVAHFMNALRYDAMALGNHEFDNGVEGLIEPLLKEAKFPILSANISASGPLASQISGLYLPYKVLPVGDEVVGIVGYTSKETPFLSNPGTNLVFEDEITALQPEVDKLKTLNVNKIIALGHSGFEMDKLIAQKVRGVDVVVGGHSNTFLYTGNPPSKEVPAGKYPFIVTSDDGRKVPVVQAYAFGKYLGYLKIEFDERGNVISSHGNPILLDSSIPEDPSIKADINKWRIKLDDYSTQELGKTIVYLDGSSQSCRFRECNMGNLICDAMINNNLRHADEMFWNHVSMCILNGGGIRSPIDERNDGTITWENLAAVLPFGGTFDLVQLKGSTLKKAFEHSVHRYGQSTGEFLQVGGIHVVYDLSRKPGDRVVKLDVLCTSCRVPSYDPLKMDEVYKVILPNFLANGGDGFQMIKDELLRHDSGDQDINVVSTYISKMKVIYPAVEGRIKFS
Protocol: Purified CD73 was concentrated to 7 mg/mL, and hanging drop crystallizations were set up versus 100 mM Tris pH 7.8 and 10% PEG6000, using equal amounts of protein and reservoir solution. Crystallisation experiments were carried out at 19 °C. Following crystal formation (1–2 days), the crystals were transferred to soaking solution containing reservoir solution with additional commercially available nucleotides or fragments (see Table S1) at concentrations between 2 and 100 mM. Crystals were then transferred to cryo solution containing an additional 20% glycerol, soaked for ~ 2–5 min and flash frozen in liquid nitrogen.
X-ray data collection was carried out at 100 K using a wavelength of 0.91841 Å on beamline 14.1 of the Berlin Synchrotron (BESSY, Berlin, Germany) equipped with a PILATUS 6 M detector [43]. All datasets were indexed, integrated, scaled and converted to structure factor amplitudes using XDSAPP [44] and AIMLESS [45]. The crystals belong to crystal form II of CD73 (pdb id 4h1y), which was used as a starting model for refinement. Coot and REFMAC5 [47] were used for model building and refinement. The final structures were validated using PROCHECK [48] and outliers in the Ramachandran plot were checked manually.
The HZB fragment library used for this work contains 102 compounds [41]. […] The presence of 12 compounds containing a nucleoside moiety in the fragment library contributed to the high hit rate of 23.5%.

[2] = target: CD73; settings: competitive inhibitor of CD73, cited from earlier work
[3] = target: T1, CD73; experiment: Michaelis–Menten kinetics of CD73-mediated AMP hydrolysis, malachite green assay; format: biochemical; settings: AMP 5-200 μM, 1.25 ng CD73
Protocol: In this study, enzyme activity and inhibition data was characterised using a modified malachite green assay. Each assay consisted of reaction buffer A (50 mM Tris–HCl pH 7.5, 100 mM NaCl, 1 mM MgCl2) to which the appropriate substrate and/or inhibitors (see Table S1) were added. Dissolved compounds were immediately used for the inhibition assays. The reactions were generally initiated by the addition of protein. The protein concentrations, substrates and inhibitors used for the various experiments are detailed below. In all experiments, reactions were monitored over a 10-min period during which samples were taken at regular intervals. At each desired time point, a malachite green/molybdate (1:1) solution was added to the sample, which simultaneously terminated the assay and also allowed the detection of the produced phosphate ions. These reaction mixtures were incubated at 25 °C for 25 min, followed by measurement of the absorbance at 620 nm. […]
The specific activity (μmol Pi/min/mg protein) was calculated from the initial reaction rates and was used to determine when the protein refolding process had reached completion. […] Kinetic values were determined by fitting the Michaelis–Menten equation to the initial reaction rates using GraphPad Prism (GraphPad Software, La Jolla, CA, USA). […]

[4] = tested on: CD73; settings: cited from earlier work; for Km: AMP as substrate; for specific activity: AMP; for turnover rate: substrate of CD73
[5] = target: rat CD73; settings: cited from earlier work
[6] = set-up: method as in earlier work; settings: last proton on the β-phosphonate group; cited from earlier work
[7] = target: T1, CD73; experiment: Substrate preference of CD73 for nucleoside monophosphates, malachite green assay; format: biochemical; settings: 1 mM substrate; for percentage activity relative to AMP (100%): 1.25 ng CD73; for decrease in absolute activity (relative to AMP) compared with the ribonucleotide equivalent: deoxyribo form vs ribo form
Protocol: Each assay consisted of reaction buffer A (50 mM Tris–HCl pH 7.5, 100 mM NaCl, 1 mM MgCl2) to which the appropriate substrate and/or inhibitors (see Table S1) were added. Dissolved compounds were immediately used for the inhibition assays. The reactions were generally initiated by the addition of protein. The protein concentrations, substrates and inhibitors used for the various experiments are detailed below. In all experiments, reactions were monitored over a 10-min period during which samples were taken at regular intervals. At each desired time point, a malachite green/molybdate (1:1) solution was added to the sample, which simultaneously terminated the assay and also allowed the detection of the produced phosphate ions. These reaction mixtures were incubated at 25 °C for 25 min, followed by measurement of the absorbance at 620 nm. A standard curve (0–50 μM orthophosphate) was performed prior to each assay and was used to calculate the phosphate concentration. All measurements were carried out in triplicate. […] The specific activity (μmol Pi/min/mg protein) was calculated from the initial reaction rates and was used to determine when the protein refolding process had reached completion. […] Kinetic values were determined by fitting the Michaelis–Menten equation to the initial reaction rates using GraphPad Prism (GraphPad Software, La Jolla, CA, USA).

[8] = target: T1, CD73; experiment: CD73 inhibition, malachite green assay; format: biochemical
Protocol: In this study, enzyme activity and inhibition data was characterised using a modified malachite green assay. Each assay consisted of reaction buffer A (50 mM Tris–HCl pH 7.5, 100 mM NaCl, 1 mM MgCl2) to which the appropriate substrate and/or inhibitors (see Table S1) were added. Dissolved compounds were immediately used for the inhibition assays. The reactions were generally initiated by the addition of protein. The protein concentrations, substrates and inhibitors used for the various experiments are detailed below. In all experiments, reactions were monitored over a 10-min period during which samples were taken at regular intervals. At each desired time point, a malachite green/molybdate (1:1) solution was added to the sample, which simultaneously terminated the assay and also allowed the detection of the produced phosphate ions. These reaction mixtures were incubated at 25 °C for 25 min, followed by measurement of the absorbance at 620 nm. A standard curve (0–50 μM orthophosphate) was performed prior to each assay and was used to calculate the phosphate concentration. All measurements were carried out in triplicate.
To study the inhibition kinetics of CD73 against a panel of commercially available nucleotide-diphosphate analogues (AMPCP, GMPCP, dUMPCP and CMPCP; see Table S1), their IC50 values were determined. In these tests, CD73 protein (1.25 ng) was incubated in reaction buffer A containing various inhibitor concentrations (0.015, 0.031, 0.061, 0.12, 0.24, 0.49, 0.98, 1.95, 3.91, 7.81, 15.62, 31.25, 62.5, 125, 250 and 500 μM). […] Dose–response curves were plotted in GraphPad Prism (GraphPad Prism Software, La Jolla, CA, USA), and the inflection point of each curve was used to determine the IC50 value of each inhibitor. The IC50 values were then used to calculate the Ki value of each inhibitor using the Cheng-Prusoff equation [51].

[9] = tested on: rat CD73; experiment: Literature inhibition of rat CD73; format: biochemical; settings: rat CD73, from literature Ki values
[10] = calculated from IC50 with the Cheng-Prusoff equation, human deglycosylated CD73 construct, read-out: Ki

With O=[N+]([O-])c1ccc(O)c(O)c1 [4-nitrocatechol] the “binding to the nucleoside binding site (crystal structure)” value (from here on “binding to the nucleoside binding site”) [1] was “did bind to the nucleoside binding site”.
In the case of O=c1[nH]cc(I)c(=O)[nH]1 [5-iodouracil], the “binding to the nucleoside binding site” value [1] is reported as “did bind to the nucleoside binding site”.
In the case of Nc1ncnc2c1ncn2[C@@H]1O[C@H](COP(=O)(O)OP(=O)(O)O)[C@@H](O)[C@H]1O [ADP], the Ki ([2]; ref 29) is listed as 3880 nM, the Ki ([2]; ref 32) is listed as 82 nM and the Ki ([2]; ref 33) is listed as 910 nM.
In the case of Nc1ncnc2c1ncn2[C@@H]1O[C@H](COP(=O)(O)O)[C@@H](O)[C@H]1O [AMP, Adenosine 5'-monophosphate], the Vmax [3] is given as 301.2 ± 2.9 U/mg, the Km ([4]; same construct after refolding) is given as 6.6 µM and 7 µM and the Km ([4]; ref 8) is given as 1 to 50 µM. For the same compound, the Km ([4]; ref 29) was 59 µM, the specific activity ([4]; human CD73 purified from an adenocarcinoma cell line) was 130 U/mg and the specific activity ([4]; this construct after refolding) was 577.2 U/mg. The turnover rate [4] was 856 nmol/min/mg.
In the case of Nc1ncnc2c1ncn2[C@@H]1O[C@H](COP(=O)(O)CP(=O)(O)O)[C@@H](O)[C@H]1O [AMPCP, Adenosin 5'-[α,β-methylene] diphosphoric acid], the Ki [5] is given as 197 ± 5 nM and the pKa [6] is given as 8.3.
In the case of Nc1ncnc2c1ncn2[C@@H]1O[C@H](COP(=O)(O)OP(=O)(O)OP(=O)(O)O)[C@@H](O)[C@H]1O [ATP], the Ki ([2]; ref 32) is given as 1500 nM and the Ki ([2]; ref 33) is given as 8900 nM.
In the case of Nc1ccn([C@@H]2O[C@H](COP(=O)(O)O)[C@@H](O)[C@H]2O)c(=O)n1 [CMP, Cytidine 5′-monophosphate], the “percentage activity relative to AMP (100%)” value [7] is reported as 73.4%.
In the case of Nc1ccn([C@@H]2O[C@H](COP(=O)(O)CP(=O)(O)O)[C@@H](O)[C@H]2O)c(=O)n1 [CMPCP, Cytidine-5'-[(α,β)-methyleno]diphosphate, Sodium salt], the Ki [8, 10] is reported as 304 ± 5.8 nM, the “ratio Ki (CMPCP)/Ki (AMPCP)” value ([8]; human CD73 construct of this work) is reported as 5.1 and the IC50 ([8]; read-out: IC50) is reported as 3200 ± 20 nM. For the same compound, the “ratio Ki (CMPCP)/Ki (AMPCP)” value [9] was 4.6 and the Ki [5] was 898 ± 63 nM.
With Nc1nc2c(ncn2[C@@H]2O[C@H](COP(=O)([O-])[O-])[C@@H](O)[C@H]2O)c(=O)[nH]1.[Na+].[Na+] [GMP, Guanosin-5'-monophosphat Dinatriumsalz] the “percentage activity relative to AMP (100%)” value [7] was 33.2%.
Compound Nc1nc2c(ncn2[C@@H]2O[C@H](COP(=O)(O)CP(=O)(O)O)[C@@H](O)[C@H]2O)c(=O)[nH]1 [GMPCP, α,β-Methyleneguanosine 5′-diphosphate sodium salt] has an IC50 [8] of 1420 ± 20 nM and a Ki [8] of 135 ± 2.7 nM.
In the case of NC(=O)c1ccc[n+]([C@@H]2O[C@H](COP(=O)([O-])OP(=O)(O)OC[C@H]3O[C@@H](n4cnc5c(N)ncnc54)[C@H](O)[C@@H]3O)[C@@H](O)[C@H]2O)c1 [NAD^+], the turnover rate [4] is given as 5 nmol/min/mg.
With O=c1ccn([C@@H]2O[C@H](COP(=O)([O-])[O-])[C@@H](O)[C@H]2O)c(=O)[nH]1.[Na+].[Na+] [UMP, Uridin-5'-Monophosphate Dinatriumsalz] the “percentage activity relative to AMP (100%)” value [7] was 87.1%.
For O=c1ccn([C@@H]2O[C@H](COP(=O)(O)CP(=O)(O)O)[C@@H](O)[C@H]2O)c(=O)[nH]1 [UMPCP], the Ki [5] is listed as 1830 ± 530 nM.
With Cn1c(=O)c2c(ncn2C)n(C)c1=O [caffeine] the “binding to the nucleoside binding site” value [1] was “did bind to the nucleoside binding site”.
In the case of Nc1ncnc2c1ncn2[C@H]1C[C@H](O)[C@@H](COP(=O)(O)O)O1 [dAMP, 2′-Deoxyadenosine 5′-monophosphate], the “decrease in absolute activity (relative to AMP) compared with the ribonucleotide equivalent” value [7] is reported as 28.8%.
For Nc1ccn([C@H]2C[C@H](O)[C@@H](COP(=O)(O)O)O2)c(=O)n1 [dCMP, 2′-Deoxycytidine 5′-monophosphate], the “percentage activity relative to AMP (100%)” value [7] was 47.6%.
In the case of Nc1nc2c(ncn2[C@H]2C[C@H](O)[C@@H](COP(=O)(O)O)O2)c(=O)[nH]1 [dGMP, 2′-Deoxyguanosine 5′-monophosphate], the “percentage activity relative to AMP (100%)” value [7] is reported as 4.8% and the “decrease in absolute activity (relative to AMP) compared with the ribonucleotide equivalent” value [7] is reported as 28.4%.
For Cc1cn([C@H]2C[C@H](O)[C@@H](COP(=O)([O-])[O-])O2)c(=O)[nH]c1=O.[Na+].[Na+] [dTMP, Thymidine 5'-Monophosphate Natriumsalz], the “percentage activity relative to AMP (100%)” value [7] was 49.4% and the “binding to the nucleoside binding site” value [1] was “only low occupancy binding”.
With O=c1ccn([C@H]2C[C@H](O)[C@@H](COP(=O)(O)CP(=O)(O)O)O2)c(=O)[nH]1 [dUMPCP, 2'-Deoxyuridine-5'-[(α,β)-methyleno]diphosphate, Sodium salt] the Ki [8, 10] was 374 ± 6.9 nM, the loss in affinity ([8]; comparison between CMPCP and dUMPCP) was 1.2 fold and the IC50 ([8]; read-out: IC50) was 3940 ± 10 nM.
In the case of NC(=O)c1ccc[n+]([C@@H]2O[C@H](COP(=O)([O-])O)[C@@H](O)[C@H]2O)c1 [nicotinamide mononucleotide], the turnover rate [4] is given as 110 nmol/min/mg.
In the case of Cc1cc2nc3c(=O)[nH]c(=O)nc-3n(C[C@H](O)[C@H](O)[C@H](O)CO)c2cc1C [riboflavin], the “binding to the nucleoside binding site” value [1] is reported as “did bind to the nucleoside binding site”.
